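Five compound concentrations were applied to cells in 96-well plates for 48 hours; endpoints were derived by simple linear interpolation of the resulting dose-response curve. GI50 = concentration required for 50% inhibition of growth.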 The source made the active and inactive calls. Cut-off read from the data, not from the text of the source: active = GI50 up to about 1.1 µM and inactive = higher.
Columns and labels:
Experiment in all cases: NCI tumour cell line growth inhibition, 48 h
[1] = test system: 786-0
[2] = test system: A498
[3] = test system: A549
[4] = test system: ACHN
[5] = test system: CAKI-1
[6] = test system: CCRF-CEM
[7] = test system: COLO 205
[8] = test system: DLD-1
[9] = test system: DMS-114
[10] = test system: DMS-273
[11] = test system: EKVX
[12] = test system: HCC 2998
[13] = test system: HCT-116
[14] = test system: HCT-15
[15] = test system: HL-60
[16] = test system: HOP-18
[17] = test system: HOP-62
[18] = test system: HOP-92
[19] = test system: HT-29
[20] = test system: IGROV-1
[21] = test system: K562
[22] = test system: KM-20L2
[23] = test system: KM12
[24] = test system: LOX IMVI
[25] = test system: LXFL 529
[26] = test system: M14
[27] = test system: M19-MEL
[28] = test system: MOLT-4
[29] = test system: Malme-3M
[30] = test system: NCI-H226
[31] = test system: NCI-H23
[32] = test system: NCI-H460
[33] = test system: NCI-H522
[34] = test system: OVCAR-3
[35] = test system: OVCAR-4
[36] = test system: OVCAR-5
[37] = test system: OVCAR-8
[38] = test system: RPMI-8226
[39] = test system: RXF 393
[40] = test system: RXF 631
[41] = test system: SF-268
[42] = test system: SF-295
[43] = test system: SF-539
[44] = test system: SK-MEL-28
[45] = test system: SK-MEL-2
[46] = test system: SK-MEL-5
[47] = test system: SK-OV-3
[48] = test system: SN12C
[49] = test system: SNB-19
[50] = test system: SNB-75
[51] = test system: SNB-78
[52] = test system: SR
[53] = test system: SW-620
[54] = test system: TK-10
[55] = test system: U-251
[56] = test system: UACC-257
[57] = test system: UACC-62
[58] = test system: UO-31
[59] = test system: XF498

COc1cc(/C=C(\OC(C)=O)c2ccc3c(c2)OCO3)cc(OC)c1OC
GI50 [1]: 29 µM (inactive)
GI50 [2]: 16.1 µM (inactive)
GI50 [3]: 26.7 µM (inactive)
GI50 [4]: 17.9 µM (inactive)
GI50 [5]: 22.1 µM (inactive)
GI50 [6]: 25.4 µM (inactive)
GI50 [7]: 19.9 µM (inactive)
GI50 [8]: 18.6 µM (inactive)
GI50 [9]: 13.4 µM (inactive)
GI50 [10]: 14.8 µM (inactive)
GI50 [11]: 15.9 µM (inactive)
GI50 [12]: > 10 µM (inactive)
GI50 [13]: 18.2 µM (inactive)
GI50 [14]: 16 µM
GI50 [15]: 27.4 µM (inactive)
GI50 [16]: 20.9 µM (inactive)
GI50 [17]: 20 µM (inactive)
GI50 [18]: 15.6 µM (inactive)
GI50 [19]: 22.3 µM (inactive)
GI50 [20]: 10.9 µM (inactive)
GI50 [21]: 25.5 µM (inactive)
GI50 [22]: 31.1 µM (inactive)
GI50 [23]: 19 µM (inactive)
GI50 [24]: 16.1 µM (inactive)
GI50 [25]: 14.4 µM (inactive)
GI50 [26]: 16.3 µM (inactive)
GI50 [27]: 14.9 µM (inactive)
GI50 [28]: 13.3 µM (inactive)
GI50 [29]: 23 µM (inactive)
GI50 [30]: 11.5 µM (inactive)
GI50 [31]: 16.4 µM (inactive)
GI50 [32]: 33 µM (inactive)
GI50 [33]: 13.5 µM (inactive)
GI50 [34]: 18.3 µM (inactive)
GI50 [35]: 18.3 µM (inactive)
GI50 [36]: 24.5 µM (inactive)
GI50 [37]: 16.3 µM (inactive)
GI50 [38]: 20.8 µM (inactive)
GI50 [39]: 24.8 µM (inactive)
GI50 [40]: > 10 µM (inactive)
GI50 [41]: 20 µM (inactive)
GI50 [42]: 23.8 µM (inactive)
GI50 [43]: 18 µM (inactive)
GI50 [44]: 17.7 µM (inactive)
GI50 [45]: 22.8 µM (inactive)
GI50 [46]: 11.8 µM (inactive)
GI50 [47]: 17.5 µM (inactive)
GI50 [48]: 20.2 µM (inactive)
GI50 [49]: 28.2 µM (inactive)
GI50 [50]: 20.6 µM (inactive)
GI50 [51]: 35.5 µM (inactive)
GI50 [52]: 8.2 µM (inactive)
GI50 [53]: 28.5 µM (inactive)
GI50 [54]: 26.6 µM (inactive)
GI50 [55]: 18.5 µM (inactive)
GI50 [56]: 18.4 µM (inactive)
GI50 [57]: 16.6 µM (inactive)
GI50 [58]: 4.15 µM (inactive)
GI50 [59]: 14 µM (inactive)
